Test results published in ChEMBL document CHEMBL1201862, “PubChem BioAssay data set” (2004).
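Compound exposure: 48 hours, 5 concentrations, 96-well plates. The concentration for 50% growth inhibition is given as GI50.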 Calls of active or inactive are those of the source. Rule as the data show it: active = GI50 up to about 1.1 µM and inactive = higher. Non-standard residues stand in square brackets, D forms with d. Residues, ends and D or L forms follow the SMILES beside them. Ava = NCCCCC(=O)O; Mpa = O=C(O)CCS

What was measured:
Assay in all cases: growth of human tumour cells (NCI), 48 h
A498 = test system: A498
SR = test system: SR
HCT-116 = test system: HCT-116
SF-295 = test system: SF-295
MDA-N = test system: MDA-N
HCC 2998 = test system: HCC 2998
NCI-H23 = test system: NCI-H23
CAKI-1 = test system: CAKI-1
NCI-H460 = test system: NCI-H460
SNB-19 = test system: SNB-19
SK-MEL-5 = test system: SK-MEL-5
PC-3 = test system: PC-3
MDA-MB-231 = test system: MDA-MB-231
SF-268 = test system: SF-268
MOLT-4 = test system: MOLT-4
UACC-62 = test system: UACC-62
KM12 = test system: KM12
OVCAR-4 = test system: OVCAR-4
SF-539 = test system: SF-539

Measured: GI50

CN(C)CN1CSC(=S)N(CN(C)C)C1
inactive: A498 > 100 µM | SR 16.8 µM | HCT-116 > 100 µM | SF-295 > 100 µM | MDA-N > 100 µM | HCC 2998 > 100 µM | NCI-H23 > 100 µM | CAKI-1 > 100 µM | NCI-H460 42.6 µM | SNB-19 > 100 µM | SK-MEL-5 > 100 µM | PC-3 16.9 µM | MDA-MB-231 > 100 µM | SF-268 > 100 µM | MOLT-4 26.7 µM | UACC-62 > 100 µM | KM12 > 100 µM | OVCAR-4 > 100 µM

CCOC(=O)NC(NNc1ccc([N+](=O)[O-])cc1[N+](=O)[O-])(C(F)(F)F)C(F)(F)F
inactive: A498 19.7 µM | SR 5.79 µM | HCT-116 32.1 µM | SF-295 59.7 µM | MDA-N 40.7 µM | HCC 2998 23.3 µM | SF-539 22.5 µM | NCI-H23 31.7 µM | CAKI-1 33 µM | NCI-H460 27.5 µM | SNB-19 35.2 µM | SK-MEL-5 60.8 µM | PC-3 24.7 µM | MDA-MB-231 15.8 µM | SF-268 43.4 µM | MOLT-4 28.1 µM | UACC-62 74.5 µM | KM12 29.4 µM

C=CCc1cccc(C(=O)/C=C(O)/C=C/c2ccccc2Cl)c1O
inactive: A498 21.2 µM | SR 4.74 µM | HCT-116 7.29 µM | SF-295 9.27 µM | MDA-N 27.7 µM | HCC 2998 33.9 µM | SF-539 7.43 µM | NCI-H23 6.12 µM | CAKI-1 42.6 µM | NCI-H460 24.9 µM | SNB-19 21 µM | SK-MEL-5 7.16 µM | PC-3 8.38 µM | MDA-MB-231 36.7 µM | SF-268 20.5 µM | MOLT-4 3.96 µM | UACC-62 13.4 µM | KM12 17.2 µM

Oc1c2c(c(O)c3ccccc13)C1(N=N2)c2ccccc2Oc2ccccc21
inactive: A498 19 µM | SR 3.4 µM | HCT-116 3.17 µM | SF-295 15 µM | MDA-N 6.58 µM | HCC 2998 18.7 µM | SF-539 5.74 µM | NCI-H23 15.2 µM | CAKI-1 10.3 µM | NCI-H460 18.5 µM | SNB-19 16.2 µM | SK-MEL-5 13 µM | PC-3 12.5 µM | MDA-MB-231 13.9 µM | SF-268 11.6 µM | MOLT-4 4.17 µM | UACC-62 11.1 µM | KM12 15.4 µM

Cc1ccc(Cl)c2c1NC(=O)/C2=N\Nc1ccccc1[N+](=O)[O-]
inactive: A498 > 100 µM | SR 8.22 µM | HCT-116 36.3 µM | SF-295 24.1 µM | MDA-N 39.4 µM | HCC 2998 36.9 µM | SF-539 21.3 µM | NCI-H23 47.6 µM | CAKI-1 > 100 µM | NCI-H460 30.4 µM | SNB-19 68.4 µM | PC-3 27.7 µM | MDA-MB-231 75 µM | SF-268 45.8 µM | MOLT-4 37.3 µM | UACC-62 31.4 µM | KM12 23.8 µM | OVCAR-4 96.6 µM

c1ccc(-c2cs[s+]c2)cc1
inactive: A498 > 100 µM | SR 52.2 µM | HCT-116 > 100 µM | SF-295 > 100 µM | MDA-N > 100 µM | HCC 2998 > 100 µM | NCI-H23 > 100 µM | CAKI-1 > 100 µM | NCI-H460 31.8 µM | SNB-19 > 100 µM | SK-MEL-5 > 100 µM | PC-3 > 100 µM | MDA-MB-231 > 100 µM | SF-268 > 100 µM | MOLT-4 26.5 µM | UACC-62 > 100 µM | KM12 > 100 µM | OVCAR-4 > 100 µM

CCOC(=O)Cc1nc2c(N)ncnc2n1C1OC(COC(C)=O)C(OC(C)=O)C1OC(C)=O (configuration not stated)
inactive: A498 > 100 µM | SR > 100 µM | HCT-116 > 100 µM | SF-295 > 100 µM | MDA-N > 100 µM | HCC 2998 > 100 µM | SF-539 > 100 µM | NCI-H23 > 100 µM | CAKI-1 > 100 µM | NCI-H460 > 100 µM | SNB-19 > 100 µM | SK-MEL-5 > 100 µM | PC-3 > 100 µM | MDA-MB-231 > 100 µM | SF-268 > 100 µM | MOLT-4 > 100 µM | UACC-62 > 100 µM | KM12 > 100 µM

COc1ccc(Cc2nc3cc(C(F)(F)F)ccc3n2C[C@@H]2CCCN3CCCCC23)cc1 (some centres not stated)
inactive: A498 4.4 µM | SR 3.93 µM | HCT-116 5.58 µM | SF-295 5.82 µM | MDA-N 4.59 µM | HCC 2998 2 µM | SF-539 13.5 µM | NCI-H23 14.6 µM | CAKI-1 12.6 µM | NCI-H460 13.6 µM | SNB-19 13.4 µM | SK-MEL-5 6.92 µM | PC-3 10.6 µM | MDA-MB-231 11 µM | MOLT-4 6.84 µM | UACC-62 5.69 µM | KM12 13.5 µM | OVCAR-4 11.7 µM

O=C1c2cc(Cl)ccc2-n2cnnc2C2CSCN12 (configuration not stated)
inactive: A498 55.6 µM | SR 75.2 µM | HCT-116 > 100 µM | SF-295 > 100 µM | MDA-N > 100 µM | HCC 2998 > 100 µM | CAKI-1 4.54 µM | NCI-H460 > 100 µM | SNB-19 > 100 µM | SK-MEL-5 > 100 µM | PC-3 > 100 µM | MDA-MB-231 > 100 µM | SF-268 > 100 µM | MOLT-4 > 100 µM | UACC-62 > 100 µM | KM12 > 100 µM | OVCAR-4 > 100 µM

O=C1Nc2ccccc2Cn2c1cc1oc(-c3ccccc3)cc12
inactive: A498 36.5 µM | SR > 100 µM | SF-295 17.7 µM | MDA-N > 100 µM | HCC 2998 > 100 µM | SF-539 29.7 µM | NCI-H23 86.9 µM | CAKI-1 30 µM | NCI-H460 61.7 µM | SNB-19 22.5 µM | SK-MEL-5 7.57 µM | PC-3 57.3 µM | MDA-MB-231 32.5 µM | SF-268 24 µM | MOLT-4 > 100 µM | UACC-62 34.1 µM | KM12 95.1 µM | OVCAR-4 28.8 µM

CC(NC(=O)CCS)C(=O)NC(C)C(=O)NC(Cc1c[nH]c2ccccc12)C(=O)NC(Cc1c[nH]cn1)C(=O)NC(CO)C(=O)NC(Cc1c[nH]c2ccccc12)C(=O)NCCCCC(=O)NC(C)C(=O)NC(CCC(N)=O)C(=O)NC(CCCCN)C(=O)NC(C)C(=O)NC(CCCNC(=N)N)C(=O)NC(CCCCN)C(N)=O (configuration not stated) ([Mpa]AAWHSW[Ava]AQKARK-NH2; configuration not given here)
inactive: A498 > 100 µM | SR 87.5 µM | HCT-116 > 100 µM | SF-295 > 100 µM | MDA-N 54.2 µM | SF-539 > 100 µM | NCI-H23 > 100 µM | CAKI-1 44.2 µM | NCI-H460 37.2 µM | SNB-19 > 100 µM | SK-MEL-5 35.6 µM | PC-3 > 100 µM | MDA-MB-231 > 100 µM | SF-268 29.2 µM | MOLT-4 > 100 µM | UACC-62 22.5 µM | KM12 26.2 µM | OVCAR-4 > 100 µM
